*1 amine or outer side, *2 acyl side, *3 side chain or, on linkers, in order; H or OH if unused. Where a SMILES comes first, the peptide text is derived from it. [ ]: non-standard residue; d: D form. The star is where a group is joined. 2Nal = N[CH](Cc1ccc2ccccc2c1)C(=O)O; X2 = C=CCOCC(N[*:1])C(=O)C(=O)[*:2]; Ser(allyl) = C=CCOC[CH](N)C(=O)O; PhAc = O=C(Cc1ccccc1)*
What was measured:
[1] = target: Cathepsin B (Homo sapiens, UniProt P07858); test: Cathepsin B enzyme assay; conditions: Cat B (μM), Ki by Morrison equation; pH 6.0, substrate Z-Phe-Arg-Amc
[2] = target: Calpain; test: Calpain enzyme assay; type: biochemical; conditions: Ki by Morrison equation; pH 7.5, 5 mM CaCl2
[3] = target: Cathepsin L (Homo sapiens, UniProt P07711); test: Cathepsin L enzyme assay; type: biochemical; conditions: Ki by Morrison equation; pH 5.5, substrate Z-Phe-Arg-Amc; read-out: Cat L
Chain of Cathepsin L (P07711 114-333, species assumed): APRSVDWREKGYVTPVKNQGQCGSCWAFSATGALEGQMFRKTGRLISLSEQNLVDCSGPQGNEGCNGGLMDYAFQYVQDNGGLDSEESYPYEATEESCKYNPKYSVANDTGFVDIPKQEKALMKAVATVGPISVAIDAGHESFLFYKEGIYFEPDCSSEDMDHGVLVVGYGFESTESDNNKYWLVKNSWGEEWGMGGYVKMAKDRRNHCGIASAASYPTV
Excerpt: Two wells contained DMSO only for controls.
Velocity was converted to μM/sec.

[4] = target: Cat S (Homo sapiens, UniProt P25774); test: Cat S inhibition; type: biochemical
Chain of Cat S (P25774 115-331): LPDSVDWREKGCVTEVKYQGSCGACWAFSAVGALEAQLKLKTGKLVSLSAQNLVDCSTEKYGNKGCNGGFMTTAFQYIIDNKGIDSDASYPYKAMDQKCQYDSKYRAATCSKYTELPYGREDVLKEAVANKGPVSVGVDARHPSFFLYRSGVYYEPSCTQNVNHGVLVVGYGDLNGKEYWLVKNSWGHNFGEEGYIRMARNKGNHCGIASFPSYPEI

[5] = test system: MERS WT; test: microbe, parasite or virus in culture; type: cell-based; conditions: Middle East respiratory syndrome-related coronavirus, read-out: MERS WT (μM)
[6] = test system: EBOV WT (Ebola Wild Type); test: microbe, parasite or virus in culture; type: cell-based; conditions: Zaire ebolavirus, read-out: EBOV WT (μM) (Ebola Wild Type)

Row | SMILES | Ki [1] [µM] | Ki [2] [nM] | Ki [3] [nM] | Ki [4] [nM] | IC50 [5] [µM] | IC50 [6] [µM]
1 | CCCCC(=O)NC(Cc1ccccc1)C(=O)NC(C)C(=O)C(=O)NC(Cc1ccccc1)C(=O)NC(C)(C)C(N)=O (stereo not drawn) [PHELIX236, N-(1-((4-((1-((1-amino-2-methyl-1-oxopropan-2-yl)amino)-1-oxo-3-phenylpropan-2-yl)amino)-3,4-dioxobutan-2-yl)amino)-1-oxo-3-phenylpropan-2-yl)pentanamide] | > 10 | > 10000 | 1720 | 260 |  | 
2 | CC(C)CC(NC(=O)OCc1ccccc1)C(=O)NC(C)C(=O)C(=O)NC(Cc1ccncc1)C(N)=O (stereo not drawn) [PHELIX198, benzyl (1-((4-((1-amino-1-oxo-3-(pyridin-4-yl)propan-2-yl)amino)-3,4-dioxobutan-2-yl)amino)-4-methyl-1-oxopentan-2-yl)carbamate] | 7.3 | 22 | 33.9 |  | > 10 | 4.03
3 | CCC(C)C(NC(=O)C(CC(C)C)NC(=O)C(Cc1ccccc1)NC(=O)OCc1ccccc1)C(=O)C(=O)NC(CCCNC(=N)N)C(N)=O (stereo not drawn) [PHELIX268, benzyl (1-amino-10-(sec-butyl)-6-carbamoyl-1-imino-13-isobutyl-8,9,12,15-tetraoxo-17-phenyl-2,7,11,14-tetraazaheptadecan-16-yl)carbamate] | 0.171 | 10.6 | 0.95 |  | > 30 | 
4 | CC(NC(=O)C(Cc1ccccc1)NC(=O)Cc1ccccc1)C(=O)C(=O)NC(Cc1cccc(F)c1)C(=O)NC(Cc1ccc(-c2ccccc2)cc1)C(N)=O (stereo not drawn) [PHELIX266, N-(1-((3-([1,1′-biphenyl]-4-yl)-1-amino-1-oxopropan-2-yl)amino)-3-(3-fluorophenyl)-1-oxopropan-2-yl)-2-oxo-3-(3-phenyl-2-(2-phenylacetamido)propanamido)butanamide] | > 10 | > 10000 | 0.14 |  | 0.78 | 
5 | C=CCOCC(NC(=O)Cc1ccccc1)C(=O)NC(CC(C)C)C(=O)NC(COCC=C)C(=O)C(=O)NCC(=O)NC(Cc1ccc2ccccc2c1)C(N)=O (stereo not drawn) [PHELIX200, 2-(3-(allyloxy)-2-(2-phenylacetamido)propanamido)-N-(1-(allyloxy)-4-((2-((1-amino-3-(naphthalen-2-yl)-1-oxopropan-2-yl)amino)-2-oxoethyl)amino)-3,4-dioxobutan-2-yl)-4-methylpentanamide] (PhAc-[Ser(allyl)]L[X2]G[2Nal]-NH2; configuration not given here) | 0.0881 | 6.57 | 1.51 |  | > 10 | 6.4
6 | CC(NC(=O)C(Cc1ccccc1)NC(=O)Cc1ccccc1)C(=O)C(=O)NC(Cc1ccccc1C(F)(F)F)C(=O)NC(Cc1ccc(-c2ccccc2)cc1)C(N)=O (stereo not drawn) [PHELIX265, N-(1-((3-([1,1′-biphenyl]-4-yl)-1-amino-1-oxopropan-2-yl)amino)-1-oxo-3-(2-(trifluoromethyl)phenyl)propan-2-yl)-2-oxo-3-(3-phenyl-2-(2-phenylacetamido)propanamido)butanamide] | > 10 | > 10000 | 302 |  | 2.2 | 
7 | CC(NC(=O)C(Cc1ccccc1)NC(=O)Cc1ccccc1)C(=O)C(=O)NC(Cc1ccc(-c2ccccc2)cc1)C(=O)NC(C)(C)C(N)=O (stereo not drawn) [PHELIX241, N-(3-([1,1′-biphenyl]-4-yl)-1-((1-amino-2-methyl-1-oxopropan-2-yl)amino)-1-oxopropan-2-yl)-2-oxo-3-(3-phenyl-2-(2-phenylacetamido)propanamido)butanamide] | > 10 | > 10000 | 1360 | 2740 |  | 
8 | CC(C)CC(NC(=O)OCc1ccccc1)C(=O)NC(Cc1ccccc1)C(=O)C(=O)NCC(=O)NC(Cc1ccc2ccccc2c1)C(N)=O (stereo not drawn) [PHELIX256, benzyl (1-((4-((2-((1-amino-3-(naphthalen-2-yl)-1-oxopropan-2-yl)amino)-2-oxoethyl)amino)-3,4-dioxo-1-phenylbutan-2-yl)amino)-4-methyl-1-oxopentan-2-yl)carbamate] | 0.24 | 12.2 | 1.47 |  | 4.97 | 
9 | CC(NC(=O)C(Cc1cccnc1)NC(=O)Cc1ccccc1)C(=O)C(=O)NC(Cc1ccccc1)C(=O)NC(C)(C)C(N)=O (stereo not drawn) [PHELIX211, N-(1-((1-amino-2-methyl-1-oxopropan-2-yl)amino)-1-oxo-3-phenylpropan-2-yl)-2-oxo-3-(2-(2-phenylacetamido)-3-(pyridin-3-yl)propanamido)butanamide] | 0.532 | > 10000 | 218 |  | > 10 | 209
10 | CC(C)CC(NC(=O)OCc1ccccc1)C(=O)NC(C)C(=O)C(=O)N1CCC(C(=O)NC(Cc2ccccc2)C(N)=O)CC1 (stereo not drawn) [PHELIX186, benzyl (1-((4-(4-((1-amino-1-oxo-3-phenylpropan-2-yl)carbamoyl)piperidin-1-yl)-3,4-dioxobutan-2-yl)amino)-4-methyl-1-oxopentan-2-yl)carbamate] | 60 | 18100 | 4320 |  | > 10 | 57.5
11 | CC(C)CC(=O)NC(Cc1ccccc1)C(=O)NC(C)C(=O)C(=O)NC(Cc1ccccc1)C(=O)NC(C)(C)C(N)=O (stereo not drawn) [PHELIX235, N-(1-((1-amino-2-methyl-1-oxopropan-2-yl)amino)-1-oxo-3-phenylpropan-2-yl)-3-(2-(3-methylbutanamido)-3-phenylpropanamido)-2-oxobutanamide] | 0.644 | > 10000 | 236 | 28.9 |  | 
12 | CC(C)CC(NC(=O)Cc1ccc(-c2ccccc2)cc1)C(=O)NC(C)C(=O)C(=O)NCC(=O)NC(Cc1ccc2ccccc2c1)C(N)=O (stereo not drawn) [PHELIX253, 2-(2-([1,1′-biphenyl]-4-yl)acetamido)-N-(4-((2-((1-amino-3-(naphthalen-2-yl)-1-oxopropan-2-yl)amino)-2-oxoethyl)amino)-3,4-dioxobutan-2-yl)-4-methylpentanamide] | 1.17 | 21.4 | 21.5 |  | > 30 | 
13 | CC(C)C[C@H](NC(=O)C(c1ccccc1)c1ccccc1)C(=O)NC(C)C(=O)C(=O)NCC(=O)N[C@@H](Cc1ccc2ccccc2c1)C(N)=O (stereo partly drawn) [PHELIX251, N-(4-((2-((1-amino-3-(naphthalen-2-yl)-1-oxopropan-2-yl)amino)-2-oxoethyl)amino)-3,4-dioxobutan-2-yl)-2-(2,2-diphenylacetamido)-4-methylpentanamide] | 0.106 | 25 | 1.4 |  | > 30 | 
14 | CC(NC(=O)C(Cc1ccccc1)NC(=O)Cc1ccccc1)C(=O)C(=O)NC(Cc1cccc(C(F)(F)F)c1)C(=O)NC(Cc1ccc(-c2ccccc2)cc1)C(N)=O (stereo not drawn) [PHELIX264, N-(1-((3-([1,1′-biphenyl]-4-yl)-1-amino-1-oxopropan-2-yl)amino)-1-oxo-3-(3-(trifluoromethyl)phenyl)propan-2-yl)-2-oxo-3-(3-phenyl-2-(2-phenylacetmido)propanamido)butanamide] | > 10 | > 10000 | 1.91 |  | 2.68 | 
15 | CC(NC(=O)[C@H](Cc1ccccn1)NC(=O)Cc1ccccc1)C(=O)C(=O)N[C@@H](Cc1ccccc1)C(=O)N[C@@H](Cc1ccccc1)C(N)=O (stereo partly drawn) [PHELIX219, N-(1-((1-amino-1-oxo-3-phenylpropan-2-yl)amino)-1-oxo-3-phenylpropan-2-yl)-2-oxo-3-(2-(2-phenylacetamido)-3-(pyridin-2-yl)propanamido)butanamide] | 7.52 | > 10000 | 2910 |  | > 10 | > 10
16 | C=CCOCC(NC(=O)C(=O)C(COCC=C)NC(=O)C(CC(C)C)NC(=O)OCc1ccccc1)C(=O)NC(Cc1ccc2ccccc2c1)C(N)=O (stereo not drawn) [PHELIX228, benzyl (1-((1-(allyloxy)-4-((3-(allyloxy)-1-((1-amino-3-(naphthalen-2-yl)-1-oxopropan-2-yl)amino)-1-oxopropan-2-yl)amino)-3,4-dioxobutan-2-yl)amino)-4-methyl-1-oxopentan-2-yl)carbamate] | 0.276 | 25.3 | 0.08 |  |  | 3.02
17 | CCCCC(NC(=O)C(=O)C(C)NC(=O)C(Cc1ccccc1)NC(=O)Cc1ccccc1)C(=O)NC(C)(C)C(N)=O (stereo not drawn) [PHELIX242, N-(1-amino-2-methyl-1-oxopropan-2-yl)-2-(2-oxo-3-(3-phenyl-2-(2-phenylacetamido)propanamido)butanamido)hexanamide] | > 10 | > 10000 | 7520 | 555 |  | 
18 | CC(NC(=O)C(Cc1ccccc1)NC(=O)Cc1ccccc1)C(=O)C(=O)NC(CC1CCCCC1)C(=O)NC(Cc1ccc(-c2ccccc2)cc1)C(N)=O (stereo not drawn) [PHELIX259, N-(1-((3-([1,1′-biphenyl]-4-yl)-1-amino-1-oxopropan-2-yl)amino)-3-cyclohexyl-1-oxopropan-2-yl)-2-oxo-3-(3-phenyl-2-(2-phenylacetamido)propanamido)butanamide] | > 10 | > 10000 | 1.93 |  | 1.1 | 
19 | CC(NC(=O)C(Cc1ccccc1)NC(=O)Cc1ccccc1)C(=O)C(=O)NC(Cc1ccccc1F)C(=O)NC(Cc1ccc(-c2ccccc2)cc1)C(N)=O (stereo not drawn) [PHELIX263, N-(1-((3-([1,1′-biphenyl]-4-yl)-1-amino-1-oxopropan-2-yl)amino)-3-(2-fluorophenyl)-1-oxopropan-2-yl)-2-oxo-3-(3-phenyl-2-(2-phenylacetamido)propanamido)butanamide] | 0.6 | > 10000 | 0.06 |  | 0.99 | 

From patent US20190085024A1, “Alpha-Ketoamide Inhibitors Of Cysteine Proteases” (Phelix Therapeutics, priority 2017, published 2019)
